Measurements reported in patent US20240216396A1, “NEUROACTIVE STEROID FOR USE IN TREATING MAJOR DEPRESSIVE DISORDER AND […] A LACTATING FEMALE” (Sage Therapeutics, Inc., priority 2021, published 2024).

Experiments:
[1] = test system: synaptic and extrasynaptic GABAA receptors; conditions: cited from earlier work
plasma protein = test: Plasma protein binding analysis of blood samples from healthy lactating participants; type: in vitro ADME; conditions: female, human, across participants, 30 mg once-daily oral with food for 5 days, read-out: free fraction in plasma (plasma protein binding)
Description: (§1) Compound (1) is an investigational, synthetic, oral neuroactive steroid under investigation as a once-daily therapy for major depressive disorder and postpartum depression. This open-label study evaluated the extent of Compound (1) transfer into breast milk, breast milk production (volume), pharmacokinetics (PK), plasma protein binding, safety, and tolerability in healthy lactating participants.
(§2) Healthy volunteers (N=15) aged 18-45 years, >12 weeks postpartum, actively lactating, and pumping or breast feeding ≥3 times per day orally self-administered Compound (1) 30 mg once-daily with food for 5 days. Breast milk was collected from Day −3 through Day 12. Blood samples for PK and plasma protein binding analysis were collected predose (Day 1), on Days 5-6, and during follow-up (Days 7, 9, and 12). The relationship between plasma and breast milk concentrations was examined with population PK modeling.

[2] = Breast milk production (volume) in healthy lactating participants; type: in vivo, human; conditions: 30 mg once-daily oral for 5 days; inter-participant variability noted
Description: as §1, §2

[3] = Open-label study: transfer of Compound (1) into breast milk of healthy lactating women; type: in vivo, human
Description: as §1, §2

[4] = Population PK modeling of the relationship between plasma and breast milk concentrations; type: in vivo, human
Protocol: as §2

[5] = Safety and tolerability in healthy lactating participants; type: in vivo, human
Description: as §1, §2

C[C@@]1(O)CC[C@H]2[C@H](CC[C@@H]3[C@@H]2CC[C@]2(C)[C@@H](C(=O)Cn4cc(C#N)cn4)CC[C@@H]32)C1 [Compound (1), 1-(2-((3R,5R,8R,9R,10S,13S,14S,17S)-3-hydroxy-3,13-dimethylhexadecahydro-1H-cyclopenta[a]phenanthren-17-yl)-2-oxoethyl)-1H-pyrazole-4-carbonitrile]
action on GABAA receptors [1]: positive allosteric modulator | fraction unbound (plasma protein): ≤ 0.0052 | decrease of volume of milk collected from baseline [2]: 8.3% | breast milk concentration relative to plasma concentration ([3]; 30 mg once-daily for 5 days): approximately one-half | daily infant dose ([3]; Day 5, 30 mg once-daily oral for 5 days): 0.00125 mg/kg/day | estimated mean relative infant dose (RID) ([3]; Day 5, 30 mg once-daily oral for 5 days, compared to maternal dose): 0.357% | Kp ([4]; female, human, breast milk/plasma, oral, 30 mg, constant, population PK modeling, read-out: partition coefficient between milk and plasma): 0.501 | relationship of plasma concentrations with time or collected milk volume ([4]; in vivo): no apparent relationship | between-subject variability in milk/plasma partitioning ([4]; population PK modeling): 23% | tolerability ([5]; 30 mg for 5 days, healthy lactating participants): well-tolerated | adverse events reported ([5]; 30 mg once-daily oral for 5 days, N=15): No deaths, serious adverse events, moderate or severe treatment-emergent adverse events (TEAEs), or TEAEs leading to discontinuation or study withdrawal were reported
